# Structures can show the parent of a compound that is named as a salt. Where two headings read alike, the source gives them in different places.
# Columns and labels:
# Type in all cases: cell-based
# [1] = system: Gram-positive and Gram-negative organisms; experiment: antibacterial activity (general statement); conditions: in words
# Klebsiella aerogenes A = experiment: MIC on nutrient agar; conditions: read-out: minimum inhibitory concentration (MIC)
# B. subtilis = experiment: MIC on (nutrient) agar; conditions: Bacillus subtilis; B. subtilis, agar; read-out: minimum inhibitory concentration (MIC)
# E. coli JT 1 = experiment: MIC on nutrient agar; conditions: Escherichia coli
# Staph. aureus Russell = experiment: MIC on (nutrient) agar; conditions: Staphylococcus aureus; Staph. aureus Russell, agar; read-out: minimum inhibitory concentration (MIC)
# Shigella sonnei = experiment: MIC on nutrient agar; conditions: read-out: minimum inhibitory concentration (MIC)
# Staph. aureus Oxford = experiment: MIC on (nutrient) agar; conditions: Staphylococcus aureus, read-out: minimum inhibitory concentration (MIC)
# Proteus mirabilis C977 = experiment: MIC on nutrient agar; conditions: Proteus mirabilis C977, nutrient agar; read-out: minimum inhibitory concentration (MIC)
# β-Haemolytic Strep. CN10 = experiment: MIC on (nutrient) agar; conditions: β-Haemolytic Strep. CN10, agar; read-out: minimum inhibitory concentration (MIC)
# Salmonella typhi = experiment: MIC on nutrient agar; conditions: Salmonella enterica, read-out: minimum inhibitory concentration (MIC)
# [2] = Klebsiella aerogenes A, nutrient agar
# [3] = JT1, E. coli JT 1, nutrient agar, read-out: minimum inhibitory concentration (MIC)
compound,measurement,setting,value
"O=C(Cc1cccs1)N[C@@H]1C(=O)N2C(C(=O)O)=C(Cc3cccnc3)CS[C@H]12 [Example 2, 3(3-pyridylmethyl)-7β-(2-thienylacetamido)-3-cephem-4-carboxylic acid]",antibacterial activity,[1],essentially similar to the trifluoroacetate salt described in Example 1
"NC(C(=O)N[C@@H]1C(=O)N2C(C(=O)O)=C(Cc3cccnc3)CS[C@H]12)C1CC1 (mixture of isomers) [Example 19, 7β-(DL-α-aminocyclopropylacetamido)-3(3-pyridylmethyl)-3-cephem-4-carboxylic acid di-trifluoroacetic acid salt]",MIC,Klebsiella aerogenes A; [2],250 µg/mL
same,MIC,B. subtilis,12.5 µg/mL
same,MIC,E. coli JT 1; [3],500 µg/mL
same,MIC,Staph. aureus Russell,12.5 µg/mL
same,MIC,Shigella sonnei,250 µg/mL
same,MIC,Staph. aureus Oxford,5 µg/mL
same,MIC,Proteus mirabilis C977,500 µg/mL
same,MIC,β-Haemolytic Strep. CN10,2.5 µg/mL
same,MIC,Salmonella typhi,250 µg/mL
"NC(CC(=O)N[C@@H]1C(=O)N2C(C(=O)O)=C(Cc3cccnc3)CS[C@H]12)C1CC=CCC1 (mixture of isomers) [Example 18, 7β-(DL-3-[cyclohex-3-ene]-3-aminopropionamido)-3(3-pyridylmethyl)-3-cephem-4-carboxylic acid di-trifluoroacetic acid salt]",MIC,Klebsiella aerogenes A; Klebsiella aerogenes,125 µg/mL
same,MIC,B. subtilis,1.25 µg/mL
same,MIC,"E. coli JT 1; JT1, read-out: minimum inhibitory concentration (MIC)",125 µg/mL
same,MIC,Staph. aureus Russell,1.25 µg/mL
same,MIC,Shigella sonnei,125 µg/mL
same,MIC,Staph. aureus Oxford,0.5 µg/mL
same,MIC,Proteus mirabilis C977,250 µg/mL
same,MIC,β-Haemolytic Strep. CN10,0.5 µg/mL
same,MIC,Salmonella typhi,125 µg/mL
"O=C(Cc1ccncc1)N[C@@H]1C(=O)N2C(C(=O)O)=C(Cc3cccnc3)CS[C@H]12 [Example 17, 7β(4-pyridylacetamido)-3(3-pyridylmethyl)-3-cephem-4-carboxylic acid di-trifluoroacetic acid salt]",MIC,Klebsiella aerogenes A; [2],10 µg/mL
same,MIC,B. subtilis,0.25 µg/mL
same,MIC,E. coli JT 1; [3],25 µg/mL
same,MIC,Staph. aureus Russell,25 µg/mL
same,MIC,Shigella sonnei,25 µg/mL
same,MIC,Staph. aureus Oxford,0.12 µg/mL
same,MIC,Proteus mirabilis C977,10 µg/mL
same,MIC,β-Haemolytic Strep. CN10,0.12 µg/mL
same,MIC,Salmonella typhi,10 µg/mL
